The results in this text go back to ChEMBL document CHEMBL1133258, “Synthesis and evaluation of quinoxalinones as HIV-1 reverse transcriptase inhibitors” (Bioorg Med Chem Lett, 2000).

Experiment [1] has as its target Human immunodeficiency virus type 1 reverse transcriptase (Human immunodeficiency virus 1, UniProt Q72547). In words: Inhibitory concentration for 50% inhibition of HIV-1 reverse transcriptase.
The target of experiment [2] is Human immunodeficiency virus type 1 reverse transcriptase (Human immunodeficiency virus 1) (UniProt Q72547).
Description: Inhibitory concentration for 90% inhibition of HIV-1 reverse transcriptase, whole cell based antiviral assay

The IC50 is the concentration that gives 50% inhibition. A higher IC50 goes with weaker potency. A word on the IC90: it is the concentration needed for an effect of 90%. In the case of `C=C(C)OC(=O)N1c2cc(Cl)ccc2NC(=O)C1(C#CC1CC1)C(F)(F)F` (stereo unspecified), the IC50 in experiment [1] is 315 nM. This compound also came in with an IC90 in experiment [2] of 15 nM.

For the compound `CC(C)OC(=O)N1c2ccccc2NC(=O)C1(C#CC1CC1)C(F)(F)F` (stereo unspecified), the IC50 in experiment [1] stood at 108 nM. In experiment [2], this compound showed an IC90 of 15 nM.

As to `O=C1Nc2ccccc2N(CC2CC2)C1(C#CC1CC1)C(F)(F)F` (stereo in doubt; 6z) [listing 1 of 2 here], in experiment [2], the 90% effect level (IC90) was put at 11 nM.

`COC(=O)N1c2ccccc2NC(=O)C1(C#CC1CC1)C(F)(F)F` (stereo unspecified) had an IC50 in experiment [1] of 504 nM. In experiment [2], this compound gave an IC90 of 44 nM.

`C=C(C)OC(=O)N1c2ccccc2NC(=O)C1(C#CC1CC1)C(F)(F)F` (stereo unspecified) showed a 50% inhibitory concentration (IC50) in experiment [1] of 169 nM. This compound had a 90% effect concentration (IC90) in experiment [2] of 11 nM.

In turn, `O=C1Nc2ccc(F)cc2N(CC2CC2)C1(C#CC1CC1)C(F)(F)F` (stereo unspecified) came in with an IC50 in experiment [1] of 263 nM. Besides, the IC90 in experiment [2] was 23 nM.

`CCOC(=O)N1c2cc(F)ccc2NC(=O)C1(C#CC1CC1)C(F)(F)F` (stereo unspecified): the midpoint of inhibition in experiment [1], the IC50, lay at 121 nM. For the same compound, the IC90 in experiment [2] was 8 nM.

`O=C1Nc2ccccc2N(CCC2CC2)C1(C#CC1CC1)C(F)(F)F` (stereo unspecified) came in with an IC50 in experiment [1] of 340 nM. The IC90 in experiment [2] is 32 nM.

As for `CCCCOC(=O)N1c2ccccc2NC(=O)C1(C#CC1CC1)C(F)(F)F` (stereo unspecified), half-maximal inhibition in experiment [1] (IC50) required 672 nM. It took 105 nM to reach the 90% level in experiment [2] (IC90).

`CC(C)COC(=O)N1c2ccccc2NC(=O)C1(C#CC1CC1)C(F)(F)F` (stereo unspecified) registered an IC50 in experiment [1] of 1140 nM. In experiment [2], this compound yielded an IC90 of 158 nM.

In turn, `CCOC(=O)N1c2ccccc2NC(=O)C1(C#CC1CC1)C(F)(F)F` (stereo in doubt) [listing 1 of 2 here] registered an IC50 in experiment [1] of 45 nM.

In turn, `O=C1Nc2ccc(Cl)cc2N(CC2CC2)C1(C#CC1CC1)C(F)(F)F` (stereo unspecified) returned an IC50 in experiment [1] of 329 nM. Also, it took 27 nM to reach the 90% level in experiment [2] (IC90).

Regarding `CCOC(=O)N1c2ccccc2NC(=O)C1(C#CC1CC1)C(F)(F)F` (stereo in doubt; 6m) [listing 1 of 2 here], the IC90 in experiment [2] was 9 nM.

With `C=CCN1c2ccccc2NC(=O)C1(C#CC1CC1)C(F)(F)F` (stereo unspecified), half-maximal inhibition in experiment [1] (IC50) required 601 nM. Moreover, the 90% effect level in experiment [2] (IC90) was put at 22 nM.

Compound `C=C(C)OC(=O)N1c2cc(F)ccc2NC(=O)C1(C#CC1CC1)C(F)(F)F` (stereo unspecified) yielded a half-inhibitory concentration (IC50) in experiment [1] of 183 nM. Further, the 90% effect level in experiment [2] (IC90) was put at 8 nM.

In experiment [1], `C=CCN1c2cc(OC)ccc2NC(=O)C1(C#CC1CC1)C(F)(F)F` (stereo unspecified) came in with an IC50 of 123 nM. The compound also registered an IC90 in experiment [2] of 29 nM.

The compound `O=C1Nc2ccccc2N(CC2CC2)C1(C#CC1CC1)C(F)(F)F` (stereo in doubt; 6a) [listing 1 of 2 here] displayed an IC90 in experiment [2] of 17 nM.

Regarding `CC(C)OC(=O)N1c2cc(F)ccc2NC(=O)C1(C#CC1CC1)C(F)(F)F` (stereo unspecified), in experiment [1], the IC50 turned out to be 130 nM. This compound also had an IC90 in experiment [2] of 9 nM.

As to `C=CCOC(=O)N1c2ccccc2NC(=O)C1(C#CC1CC1)C(F)(F)F` (stereo unspecified), the IC50 in experiment [1] worked out at 147 nM. In addition, the IC90 in experiment [2] stood at 30 nM.

Turning to `O=C(c1ccccc1)N1c2ccccc2NC(=O)C1(C#CC1CC1)C(F)(F)F` (stereo unspecified), in experiment [1], the IC50 is > 5000 nM. Moreover, the 90% effect concentration (IC90) in experiment [2] was > 1000 nM.

For the compound `COc1ccc2c(c1)N(CC1CC1)C(C#CC1CC1)(C(F)(F)F)C(=O)N2` (stereo unspecified), in experiment [1], inhibition was half-maximal at 109 nM (IC50). For the same compound, the IC90 in experiment [2] stood at 19 nM.

Consider `O=C1Nc2ccccc2N(CC2CC2)C1(C#CC1CC1)C(F)(F)F` (stereo in doubt; 6z) [listing 2 of 2 here], for which the half-maximal inhibitory concentration (IC50) in experiment [1] was 127 nM.

Regarding `CC(C)S(=O)(=O)N1c2ccccc2NC(=O)C1(C#CC1CC1)C(F)(F)F` (stereo unspecified), the IC50 in experiment [1] is > 5000 nM. Also, the IC90 in experiment [2] was > 1000 nM.

As for `O=C1Nc2ccccc2N(Cc2ccccc2)C1(C#CC1CC1)C(F)(F)F` (stereo unspecified), in experiment [1], 1820 nM corresponded to half-maximal inhibition (IC50). In experiment [2], the IC90 stood at 21 nM.

As to `CC(C)CN1c2cc(Cl)ccc2NC(=O)C1(C#CC1CC1)C(F)(F)F` (stereo unspecified), in experiment [1], the IC50 was determined as 404 nM. Besides, the 90% effect concentration (IC90) in experiment [2] was 52 nM.

The compound `CCOC(=O)N1c2ccccc2NC(=O)C1(C#CC1CC1)C(F)(F)F` (stereo in doubt; 6m) [listing 2 of 2 here] came in with an IC50 in experiment [1] of 118 nM.

In turn, `C=CCN1c2cc(Cl)ccc2NC(=O)C1(C#CC1CC1)C(F)(F)F` (stereo unspecified) displayed a concentration for half-maximal inhibition (IC50) in experiment [1] of 650 nM. The compound further had an IC90 in experiment [2] of 85 nM.

With `CC[C@H]1C(=O)Nc2ccc(F)cc2N1C(=O)OC(C)C` [OPAVIRALINE], half-maximal inhibition in experiment [1] (IC50) was put at 179 nM. This compound came in with an IC90 in experiment [2] of 11 nM.

`CCOC(=O)N1c2cc(Cl)ccc2NC(=O)C1(C#CC1CC1)C(F)(F)F` (stereo unspecified) showed a 50% inhibitory concentration (IC50) in experiment [1] of 127 nM. The IC90 in experiment [2] was 11 nM.

For the compound `O=C1Nc2ccccc2N(CC2CC2)C1(C#CC1CC1)C(F)(F)F` (stereo in doubt; 6a) [listing 2 of 2 here], the IC50 in experiment [1] amounted to 253 nM.

Take `CCCS(=O)(=O)N1c2ccccc2NC(=O)C1(C#CC1CC1)C(F)(F)F` (stereo unspecified): in experiment [1], the IC50 was > 5000 nM. For the same compound, in experiment [2], the IC90 was > 1000 nM.

Compound `CCOC(=O)N1c2ccccc2NC(=O)C1(C#CC1CC1)C(F)(F)F` (stereo in doubt) [listing 2 of 2 here] showed an IC90 in experiment [2] of 4.8 nM.

Regarding `CC(C)C(I)N1c2ccccc2NC(=O)C1(C#CC1CC1)C(F)(F)F` (stereo unspecified), 160 nM corresponded to half-maximal inhibition in experiment [1] (IC50). Also, in experiment [2], the 90% effect level (IC90) was put at 19 nM.

In experiment [1], `C#CCN1c2ccccc2NC(=O)C1(C#CC1CC1)C(F)(F)F` (stereo unspecified) gave an IC50 of 1810 nM. In addition, the 90% effect level in experiment [2] (IC90) was put at 53 nM.

For the compound `CC(C)OC(=O)N1c2cc(Cl)ccc2NC(=O)C1(C#CC1CC1)C(F)(F)F` (stereo unspecified), the IC50 in experiment [1] was found to be 160 nM. In addition, in experiment [2], it took 19 nM to reach the 90% level (IC90).

For `CCS(=O)(=O)N1c2ccccc2NC(=O)C1(C#CC1CC1)C(F)(F)F` (stereo unspecified), the IC50 in experiment [1] was > 5000 nM. Besides, the IC90 in experiment [2] was > 1000 nM.

Turning to `C=CCN1c2cc(F)ccc2NC(=O)C1(C#CC1CC1)C(F)(F)F` (stereo unspecified), in experiment [1], the 50% inhibitory concentration (IC50) worked out at 124 nM. The compound further showed an IC90 in experiment [2] of 21 nM.
